Columns and labels:
Format in all cases: in vivo
[1] = system: diamondback moth (Plutella xylostella); assay: Insecticidal effect on diamondback moth (Test Example 1); details: for Insecticidal effect (Test Example 1), judged from mortality / Insecticidal effect, Test Example 1: diamondback moth; for Insecticidal effect (Test Example 1), judged from mortality: judged by the criterion of Test Example 1; for Insecticidal effect on diamondback moth (Test Example 1), judged grade: mortality judged according to the criterion shown in Test Example 1
Summary of the method: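 Eggs laid by adult moths on Chinese cabbage seedlings, which were immersed in test solution, air-dried and kept at 25 °C. Hatched insects counted 6 days after immersion and mortality calculated, with effect graded by criterion; triplicate groups of 10 insects.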

[2] = system: common cutworm (Spodoptera Litura); assay: Insecticidal effect on common cutworm (Test Example 2); details: 500 ppm, 25° C.; for Insecticidal effect (Test Example 2), judged from mortality / Insecticidal effect on common cutworm (Test Example 2), judged grade: cabbage leaf dip; for Insecticidal effect (Test Example 2), judged from mortality: 8 days after inoculation; for Insecticidal effect, Test Example 2: cabbage leaf immersed; for Insecticidal effect, Test Example 2 / Insecticidal effect on common cutworm (Test Example 2), judged grade: eight days after inoculation; for Insecticidal effect on common cutworm (Test Example 2), judged grade: second-instar larvae
Summary of the method: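 After the treated material air-dries, it goes into a dish, second-instar larvae are added, and the dish is closed. Incubation runs at 25° C. On day eight, dead and living larvae are scored, and the calculated mortality is rated on an effect scale.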

[3] = system: rice leafroller (Cnaphalocrocis medinalis); assay: Insecticidal effect on rice leafroller (Test Example 3); details: 500 ppm, 25° C., humidity 70%; for Insecticidal effect (Test Example 3), judged from mortality / Insecticidal effect on rice leafroller (Test Example 3), judged grade: rice lamina dip; for Insecticidal effect (Test Example 3), judged from mortality: 4 days after inoculation; for Insecticidal effect, Test Example 3: rice lamina immersed; for Insecticidal effect, Test Example 3 / Insecticidal effect on rice leafroller (Test Example 3), judged grade: four days after inoculation; for Insecticidal effect on rice leafroller (Test Example 3), judged grade: third-instar larvae
Summary of the method: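 Groups of 10 third-instar larvae, in triplicate, are placed on air-dried lamina resting on wet filter paper. Incubation runs four days at 25° C with 70% humidity before survivors and dead are tallied.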

[4] = second-instar larvae of common cutworm
[5] = third-instar larvae of rice leafroller
[6] = judged by the mortality criterion of Test Example 1
[7] = mortality judged by criterion of Test Example 1
[8] = common cutworm second-instar larvae
[9] = rice leafroller third-instar larvae

Cc1cc(C(F)(F)C(F)(F)F)ccc1NC(=O)c1cccc(Cl)c1C(=O)N[C@@H](C)CO [compound 1445]
Insecticidal effect (Test Example 1), judged from mortality [1]: A (100) | Insecticidal effect (Test Example 2), judged from mortality [2, 4]: A (100) | Insecticidal effect (Test Example 3), judged from mortality [3, 5]: A (100)

Cc1cc(OC(F)F)ccc1NC(=O)c1ccc(Br)c(Br)c1C(=O)NC(C)C [compound 338]
Insecticidal effect, Test Example 1 [1, 6]: A (100) | Insecticidal effect, Test Example 2 [2, 4]: B (99-90) | Insecticidal effect, Test Example 3 [3, 5]: A (100)

CCc1cc(OC(F)(F)F)ccc1NC(=O)c1cccc(Cl)c1C(=O)NC(C)C [compound 1209]
Insecticidal effect, Test Example 1 [1, 7]: A (100) | Insecticidal effect, Test Example 2 [2, 8]: D (79-50) | Insecticidal effect, Test Example 3 [3, 9]: A (100)

CCCN(CC)C(=O)c1c(I)cccc1C(=O)Nc1ccc(C(F)(F)C(F)(F)F)cc1C [compound 1573]
Insecticidal effect (Test Example 1), judged from mortality [1]: A (100) | Insecticidal effect (Test Example 2), judged from mortality [2, 4]: A (100) | Insecticidal effect (Test Example 3), judged from mortality [3, 5]: A (100)

Cc1cc(OCC(F)(F)C(F)F)ccc1NC(=O)c1c(I)cccc1C(=O)NC(C)C [compound 447]
Insecticidal effect on diamondback moth (Test Example 1), judged grade [1]: A (100) | Insecticidal effect on common cutworm (Test Example 2), judged grade [2]: B (99-90) | Insecticidal effect on rice leafroller (Test Example 3), judged grade [3]: C (89-80)

CC(C)NC(=O)c1c(F)cccc1C(=O)Nc1ccc(OC(F)(F)C(F)OC(F)(F)C(F)(F)C(F)(F)F)cc1 (stereo not drawn) [compound 476]
Insecticidal effect on diamondback moth (Test Example 1), judged grade [1]: A (100) | Insecticidal effect on common cutworm (Test Example 2), judged grade [2]: A (100) | Insecticidal effect on rice leafroller (Test Example 3), judged grade [3]: A (100)

CC(C)NC(=O)c1c(C(=O)Nc2ccc(SC(F)F)cc2)cccc1[N+](=O)[O-] [compound 625]
Insecticidal effect on diamondback moth (Test Example 1), judged grade [1]: A (100) | Insecticidal effect on common cutworm (Test Example 2), judged grade [2]: D (79-50) | Insecticidal effect on rice leafroller (Test Example 3), judged grade [3]: D (79-50)

CCN(CC)C(=O)c1c(I)cccc1C(=O)Nc1ccc(OC(F)(F)F)cc1C [compound 1533]
Insecticidal effect (Test Example 1), judged from mortality [1]: A (100) | Insecticidal effect (Test Example 2), judged from mortality [2, 4]: A (100) | Insecticidal effect (Test Example 3), judged from mortality [3, 5]: A (100)

Cc1cc(OC(F)(F)F)ccc1NC(=O)c1cccc(F)c1C(=O)NC(C)C [compound 510]
Insecticidal effect on diamondback moth (Test Example 1), judged grade [1]: A (100) | Insecticidal effect on common cutworm (Test Example 2), judged grade [2]: B (99-90) | Insecticidal effect on rice leafroller (Test Example 3), judged grade [3]: A (100)

Cc1cc(OC(F)(F)C(F)(Cl)Cl)ccc1NC(=O)c1cccc([N+](=O)[O-])c1C(=O)NC(C)C [compound 715]
Insecticidal effect on diamondback moth (Test Example 1), judged grade [1]: A (100) | Insecticidal effect on common cutworm (Test Example 2), judged grade [2]: A (100) | Insecticidal effect on rice leafroller (Test Example 3), judged grade [3]: A (100)

Cc1cc(I)ccc1NC(=O)c1cccc(Br)c1C(=O)NC(C)C [compound 274]
Insecticidal effect, Test Example 1 [1, 6]: A (100) | Insecticidal effect, Test Example 2 [2, 4]: A (100) | Insecticidal effect, Test Example 3 [3, 5]: A (100)

CC(C)NC(=O)c1c(I)cccc1C(=O)Nc1ccc2c(c1)OC(F)(F)C(F)O2 (stereo not drawn) [compound 1161]
Insecticidal effect, Test Example 1 [1, 7]: A (100) | Insecticidal effect, Test Example 2 [2, 8]: D (79-50) | Insecticidal effect, Test Example 3 [3, 9]: A (100)

CC(C)NC(=O)c1c(I)cccc1C(=O)Nc1ccc2c(c1)OC(F)(F)C(F)O2 (stereo not drawn) [compound 1164]
Insecticidal effect, Test Example 1 [1, 7]: A (100) | Insecticidal effect, Test Example 2 [2, 8]: A (100) | Insecticidal effect, Test Example 3 [3, 9]: A (100)

CC(C)NC(=O)c1c(Cl)cccc1C(=O)Nc1ccc2c(c1)OC(F)(F)C2(F)F [compound 973]
Insecticidal effect, Test Example 1 [1, 7]: A (100) | Insecticidal effect, Test Example 2 [2, 8]: A (100) | Insecticidal effect, Test Example 3 [3, 9]: A (100)

Cc1cc(OC(F)(F)C(F)OC(F)(F)F)ccc1NC(=O)c1cccc(Cl)c1C(=O)NC(C)C (stereo not drawn) [compound 149]
Insecticidal effect, Test Example 1 [1, 6]: A (100) | Insecticidal effect, Test Example 2 [2, 4]: A (100) | Insecticidal effect, Test Example 3 [3, 5]: A (100)

Cc1cc(OCC(F)(F)C(F)F)ccc1NC(=O)c1cccc([N+](=O)[O-])c1C(=O)NC(C)C [compound 699]
Insecticidal effect on diamondback moth (Test Example 1), judged grade [1]: A (100) | Insecticidal effect on common cutworm (Test Example 2), judged grade [2]: A (100) | Insecticidal effect on rice leafroller (Test Example 3), judged grade [3]: D (79-50)

CC(C)NC(=O)c1c(Cl)cccc1C(=O)Nc1ccc(C(F)(C(F)(F)F)C(F)(F)F)cc1 [compound 89]
Insecticidal effect, Test Example 1 [1, 6]: A (100) | Insecticidal effect, Test Example 2 [2, 4]: B (99-90) | Insecticidal effect, Test Example 3 [3, 5]: A (100)

Cc1cc(C(F)(F)F)ccc1NC(=O)c1cccc(I)c1C(=O)NC(C)(C)C [compound 1141]
Insecticidal effect, Test Example 1 [1, 7]: A (100) | Insecticidal effect, Test Example 2 [2, 8]: A (100) | Insecticidal effect, Test Example 3 [3, 9]: A (100)

CC(C)NC(=O)c1c(Br)cccc1C(=O)Nc1ccc(OC(F)(F)F)cc1Cl [compound 286]
Insecticidal effect, Test Example 1 [1, 6]: A (100) | Insecticidal effect, Test Example 2 [2, 4]: A (100) | Insecticidal effect, Test Example 3 [3, 5]: A (100)

CCCNC(=O)c1c(Cl)cccc1C(=O)Nc1ccc(C(F)(F)C(F)(F)F)cc1F [compound 1491]
Insecticidal effect (Test Example 1), judged from mortality [1]: A (100) | Insecticidal effect (Test Example 2), judged from mortality [2, 4]: A (100) | Insecticidal effect (Test Example 3), judged from mortality [3, 5]: A (100)

Cc1c(Cl)cccc1NC(=O)c1ccccc1C(=O)NC(C)C [compound 49]
Insecticidal effect, Test Example 1 [1, 6]: A (100) | Insecticidal effect, Test Example 2 [2, 4]: A (100) | Insecticidal effect, Test Example 3 [3, 5]: A (100)

CCN(CC)C(=O)c1c(I)cccc1C(=O)Nc1ccc(C(F)(C(F)(F)F)C(F)(F)F)cc1C [compound 1532]
Insecticidal effect (Test Example 1), judged from mortality [1]: A (100) | Insecticidal effect (Test Example 2), judged from mortality [2, 4]: A (100) | Insecticidal effect (Test Example 3), judged from mortality [3, 5]: A (100)

Cc1ccc(NC(=O)c2cccc(Br)c2C(=O)NC(C)C)c(C)c1Cl [compound 270]
Insecticidal effect, Test Example 1 [1, 6]: A (100) | Insecticidal effect, Test Example 2 [2, 4]: A (100) | Insecticidal effect, Test Example 3 [3, 5]: A (100)

CC(C)NC(=O)c1cccc(F)c1C(=O)Nc1ccc(C(F)(F)F)cc1Cl [compound 550]
Insecticidal effect on diamondback moth (Test Example 1), judged grade [1]: A (100) | Insecticidal effect on common cutworm (Test Example 2), judged grade [2]: C (89-80) | Insecticidal effect on rice leafroller (Test Example 3), judged grade [3]: A (100)

Cc1cc(OC(F)(F)C(F)C(F)(F)F)ccc1NC(=O)c1cccc(I)c1C(=O)NC(C)C (stereo not drawn) [compound 393]
Insecticidal effect, Test Example 1 [1, 6]: A (100) | Insecticidal effect, Test Example 2 [2, 4]: A (100) | Insecticidal effect, Test Example 3 [3, 5]: A (100)

C#CCNC(=O)c1c(I)cccc1C(=O)Nc1ccc(C(F)(F)C(F)(F)F)cc1C [compound 989]
Insecticidal effect, Test Example 1 [1, 7]: A (100) | Insecticidal effect, Test Example 2 [2, 8]: A (100) | Insecticidal effect, Test Example 3 [3, 9]: A (100)

Cc1cc(OC(F)(F)C(F)(Br)C(F)(F)F)ccc1NC(=O)c1c(Cl)cccc1C(=O)NC(C)C (stereo not drawn) [compound 243]
Insecticidal effect, Test Example 1 [1, 6]: A (100) | Insecticidal effect, Test Example 2 [2, 4]: A (100) | Insecticidal effect, Test Example 3 [3, 5]: B (99-90)

CCN(C(=O)c1c(I)cccc1C(=O)Nc1ccc(C(F)(F)C(F)(F)F)cc1C)C(C)C [compound 1159]
Insecticidal effect, Test Example 1 [1, 7]: A (100) | Insecticidal effect, Test Example 2 [2, 8]: A (100) | Insecticidal effect, Test Example 3 [3, 9]: A (100)

Cc1cc(OC(F)(F)Br)ccc1NC(=O)c1cccc(Br)c1C(=O)NC(C)C [compound 290]
Insecticidal effect, Test Example 1 [1, 6]: A (100) | Insecticidal effect, Test Example 2 [2, 4]: A (100) | Insecticidal effect, Test Example 3 [3, 5]: A (100)

Cc1cc(Sc2ccc(Cl)cc2)ccc1NC(=O)c1cccc(F)c1C(=O)NC(C)C [compound 522]
Insecticidal effect on diamondback moth (Test Example 1), judged grade [1]: A (100) | Insecticidal effect on common cutworm (Test Example 2), judged grade [2]: D (79-50) | Insecticidal effect on rice leafroller (Test Example 3), judged grade [3]: A (100)

Cc1cc(OC(F)F)ccc1NC(=O)c1c(F)ccc(F)c1C(=O)NC(C)C [compound 581]
Insecticidal effect on diamondback moth (Test Example 1), judged grade [1]: A (100) | Insecticidal effect on common cutworm (Test Example 2), judged grade [2]: B (99-90) | Insecticidal effect on rice leafroller (Test Example 3), judged grade [3]: A (100)
